Assay results from patent US10131652B2, “Pyrimidinyloxy benzene derivatives as herbicides” (E. I. DU PONT DE NEMOURS AND COMPANY, priority 2014, dated 2018).

How the values were obtained:
Format in all cases: in vivo
[1] = test system: galium (catchweed bedstraw, Galium aparine); test: Test B postemergence plant response
How it was run: (§1)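 Visual injury rating, 0–100 (0 = no effect, 100 = complete control), vs untreated controls ~10 days after postemergence spray; greenhouse; potted loam soil/sand; plants 2–10 cm, 1–2 leaf stage.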

[2] = test system: blackgrass (Alopecurus myosuroides); test: Test B postemergence plant response
How it was run: as §1

[3] = test system: soybean (Glycine max); test: Test D pre-/postemergence plant response
How it was run: (§2)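 Seeds were planted in a loam and sand blend and sprayed preemergence. In parallel, seedlings grown in peat moss/vermiculite medium were sprayed postemergence at 2 to 18 cm height. Both used a surfactant-containing non-phytotoxic solvent. Greenhouse ratings at 13 to 15 days used a 0–100 control scale.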

[4] = test system: corn (Zea mays); test: Test D pre-/postemergence plant response
How it was run: as §2

[5] = test system: ragweed (common ragweed, Ambrosia elatior); test: Test D pre-/postemergence plant response
How it was run: as §2

[6] = test system: giant foxtail (Setaria faberii); test: Test D pre-/postemergence plant response
How it was run: as §2

[7] = test system: pigweed (Amaranthus retroflexus); test: Test D pre-/postemergence plant response
How it was run: as §2

[8] = test system: oilseed rape (Brassica napus); test: Test D pre-/postemergence plant response
How it was run: as §2

[9] = test system: barnyardgrass (Echinochloa crus-galli); test: Test D pre-/postemergence plant response
How it was run: as §2

[10] = test system: morningglory (Ipomoea coccinea); test: Test D pre-/postemergence plant response
How it was run: as §2

[11] = test system: yellow nutsedge (Cyperus esculentus); test: Test D pre-/postemergence plant response
How it was run: as §2

[12] = test system: Italian ryegrass (Lolium multiflorum); test: Test D pre-/postemergence plant response
How it was run: as §2

[13] = test system: waterhemp (common waterhemp, Amaranthus rudis); test: Test D pre-/postemergence plant response
How it was run: as §2

[14] = test system: chickweed (common chickweed, Stellaria media); test: Test D postemergence plant response; conditions: for Chickweed plant response rating: scale 0 to 100 (0 no effect, 100 complete control); for Plant response rating, Chickweed: scale 0 to 100, 0 no effect, 100 complete control
How it was run: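 Visual scoring from 0 (no effect) to 100 (complete control), relative to controls, 13–15 days after treatment in the greenhouse. Compounds were applied postemergence at the 1- to 4-leaf stage (2–18 cm) to potted plants in peat-based medium.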

[15] = 125 g ai/ha, postemergence, 0 to 100 scale, 0 no effect, 100 complete control
[16] = Postemergence, 500 g ai/ha, 0 to 100 scale (0 no effect, 100 complete control)
[17] = Postemergence, 16 g ai/ha, scale 0 to 100 (0 no effect, 100 complete control)
[18] = Postemergence, 31 g ai/ha, scale 0 to 100 (0 no effect, 100 complete control)
[19] = Postemergence, 62 g ai/ha, scale 0 to 100, 0 no effect, 100 complete control
[20] = Postemergence, 125 g ai/ha, scale 0 to 100, 0 no effect, 100 complete control
[21] = Preemergence, 16 g ai/ha, scale 0 to 100 (0 no effect, 100 complete control)
[22] = Preemergence, 31 g ai/ha, scale 0 to 100 (0 no effect, 100 complete control)
[23] = Preemergence, 62 g ai/ha, scale 0 to 100 (0 no effect, 100 complete control)
[24] = 31 g ai/ha, Postemergence, 0 to 100 scale, 0 no effect, 100 complete control

## Cc1cc(-c2ccccc2Oc2ncc(Cl)cn2)no1 [Compound 60]
[1]; [15]
  Plant response rating, Galium: 100
[1]; [16]
  Plant response rating, Galium: 100
[2]; [15]
  Plant response rating, Blackgrass: 50
[2]; [16]
  Plant response rating, Blackgrass: 100
[3]; [17]
  Soybean plant response rating: 65
[3]; [18]
  Soybean plant response rating: 65
[3]; [19]
  Plant response rating, Soybean: 95
[3]; [20]
  Plant response rating, Soybean: 95
[3]; Preemergence, 125 g ai/ha
  Plant response rating (scale 0 to 100), Soybean: 95
[3]; [21]
  Plant response rating, Soybean: 35
[3]; [22]
  Plant response rating, Soybean: 55
[3]; [23]
  Plant response rating, Soybean: 65
[4]; [17]
  Corn plant response rating: 0
[4]; [18]
  Corn plant response rating: 0
[4]; [19]
  Plant response rating, Corn: 5
[4]; [20]
  Plant response rating, Corn: 5
[4]; Preemergence, 125 g ai/ha
  Plant response rating (scale 0 to 100), Corn: 5
[4]; [21]
  Plant response rating, Corn: 5
[4]; [22]
  Plant response rating, Corn: 0
[4]; [23]
  Plant response rating, Corn: 0
[5]; [17]
  Ragweed plant response rating: 15
[5]; [18]
  Ragweed plant response rating: 30
[5]; [19]
  Plant response rating, Ragweed: 40
[5]; [20]
  Plant response rating, Ragweed: 70
[5]; Preemergence, 125 g ai/ha
  Plant response rating (scale 0 to 100), Ragweed: 90
[5]; [21]
  Plant response rating, Ragweed: 15
[5]; [22]
  Plant response rating, Ragweed: 55
[5]; [23]
  Plant response rating, Ragweed: 65
[6]; [17]
  Foxtail, Giant plant response rating: 0
[6]; [18]
  Foxtail, Giant plant response rating: 5
[6]; [19]
  Plant response rating, Foxtail, Giant: 5
[6]; [20]
  Plant response rating, Foxtail, Giant: 10
[6]; Preemergence, 125 g ai/ha
  Plant response rating (scale 0 to 100), Foxtail, Giant: 95
[6]; [21]
  Plant response rating, Foxtail, Giant: 0
[6]; [22]
  Plant response rating, Foxtail, Giant: 5
[6]; [23]
  Plant response rating, Foxtail, Giant: 40
[7]; [17]
  Pigweed plant response rating: 20
[7]; [18]
  Pigweed plant response rating: 35
[7]; [19]
  Plant response rating, Pigweed: 55
[7]; [20]
  Plant response rating, Pigweed: 70
[7]; Preemergence, 125 g ai/ha
  Plant response rating (scale 0 to 100), Pigweed: 100
[7]; [21]
  Plant response rating, Pigweed: 75
[7]; [22]
  Plant response rating, Pigweed: 100
[7]; [23]
  Plant response rating, Pigweed: 100
[8]; [17]
  Oilseed Rape plant response rating: 60
[8]; [18]
  Oilseed Rape plant response rating: 50
[8]; [19]
  Plant response rating, Oilseed Rape: 65
[8]; [20]
  Plant response rating, Oilseed Rape: 90
[8]; Preemergence, 125 g ai/ha
  Plant response rating (scale 0 to 100), Oilseed Rape: 100
[8]; [21]
  Plant response rating, Oilseed Rape: 80
[8]; [22]
  Plant response rating, Oilseed Rape: 98
[8]; [23]
  Plant response rating, Oilseed Rape: 90
[9]; [17]
  Barnyardgrass plant response rating: 0
[9]; [18]
  Barnyardgrass plant response rating: 0
[9]; [19]
  Plant response rating, Barnyardgrass: 10
[9]; [20]
  Plant response rating, Barnyardgrass: 10
[9]; Preemergence, 62 g ai/ha
  Plant response rating (scale 0 to 100), Barnyardgrass: 30
[9]; Preemergence, 125 g ai/ha
  Plant response rating (scale 0 to 100), Barnyardgrass: 75
[9]; [21]
  Plant response rating, Barnyardgrass: 0
[9]; [22]
  Plant response rating, Barnyardgrass: 5
[10]; [17]
  Morningglory plant response rating: 0
[10]; [18]
  Morningglory plant response rating: 40
[10]; [19]
  Plant response rating, Morningglory: 25
[10]; [20]
  Plant response rating, Morningglory: 40
[10]; Preemergence, 125 g ai/ha
  Plant response rating (scale 0 to 100), Morningglory: 20
[10]; [21]
  Plant response rating, Morningglory: 0
[10]; [22]
  Plant response rating, Morningglory: 0
[10]; [23]
  Plant response rating, Morningglory: 10
[11]; [17]
  Nutsedge, Yellow plant response rating: 0
[11]; [18]
  Nutsedge, Yellow plant response rating: 0
[11]; [19]
  Plant response rating, Nutsedge, Yellow: 0
[11]; [20]
  Plant response rating, Nutsedge, Yellow: 5
[11]; Preemergence, 125 g ai/ha
  Plant response rating (scale 0 to 100), Nutsedge, Yellow: 5
[11]; [21]
  Plant response rating, Nutsedge, Yellow: 0
[11]; [22]
  Plant response rating, Nutsedge, Yellow: 0
[11]; [23]
  Plant response rating, Nutsedge, Yellow: 0
[12]; [17]
  Ryegrass, Italian plant response rating: 0
[12]; [18]
  Ryegrass, Italian plant response rating: 0
[12]; [19]
  Plant response rating, Ryegrass, Italian: 0
[12]; [20]
  Plant response rating, Ryegrass, Italian: 0
[12]; Preemergence, 125 g ai/ha
  Plant response rating (scale 0 to 100), Ryegrass, Italian: 30
[12]; [21]
  Plant response rating, Ryegrass, Italian: 0
[12]; [22]
  Plant response rating, Ryegrass, Italian: 0
[12]; [23]
  Plant response rating, Ryegrass, Italian: 0
[13]; [17]
  Waterhemp plant response rating: 15
[13]; [18]
  Waterhemp plant response rating: 30
[13]; [19]
  Plant response rating, Waterhemp: 50
[13]; [20]
  Plant response rating, Waterhemp: 70
[13]; Preemergence, 125 g ai/ha
  Plant response rating (scale 0 to 100), Waterhemp: 100
[13]; [21]
  Plant response rating, Waterhemp: 80
[13]; [22]
  Plant response rating, Waterhemp: 100
[13]; [23]
  Plant response rating, Waterhemp: 100
[14]; 16 g ai/ha
  Chickweed plant response rating: 45
[14]; 31 g ai/ha
  Chickweed plant response rating: 50
[14]; 62 g ai/ha
  Plant response rating, Chickweed: 60
[14]; 125 g ai/ha
  Plant response rating, Chickweed: 75

## Fc1ccc(Oc2ncc(Cl)cn2)c(-c2cc(C(F)F)on2)c1Cl [Compound 96]
[1]; [24]
  Plant response rating, Galium: 100
[1]; [15]
  Plant response rating, Galium: 100
[2]; [24]
  Plant response rating, Blackgrass: 10
[2]; [15]
  Plant response rating, Blackgrass: 70
[3]; [17]
  Soybean plant response rating: 15
[3]; [18]
  Soybean plant response rating: 50
[3]; [19]
  Plant response rating, Soybean: 55
[3]; [20]
  Plant response rating, Soybean: 35
[4]; [17]
  Corn plant response rating: 5
[4]; [18]
  Corn plant response rating: 15
[4]; [19]
  Plant response rating, Corn: 5
[4]; [20]
  Plant response rating, Corn: 5
[5]; [17]
  Ragweed plant response rating: 0
[5]; [18]
  Ragweed plant response rating: 10
[5]; [19]
  Plant response rating, Ragweed: 10
[5]; [20]
  Plant response rating, Ragweed: 40
[6]; [17]
  Foxtail, Giant plant response rating: 0
[6]; [18]
  Foxtail, Giant plant response rating: 5
[6]; [19]
  Plant response rating, Foxtail, Giant: 10
[6]; [20]
  Plant response rating, Foxtail, Giant: 10
[7]; [17]
  Pigweed plant response rating: 98
[7]; [18]
  Pigweed plant response rating: 95
[7]; [19]
  Plant response rating, Pigweed: 98
[7]; [20]
  Plant response rating, Pigweed: 98
[8]; [17]
  Oilseed Rape plant response rating: 40
[8]; [18]
  Oilseed Rape plant response rating: 45
[8]; [19]
  Plant response rating, Oilseed Rape: 65
[8]; [20]
  Plant response rating, Oilseed Rape: 65
[9]; [17]
  Barnyardgrass plant response rating: 0
[9]; [18]
  Barnyardgrass plant response rating: 0
[9]; [19]
  Plant response rating, Barnyardgrass: 5
[9]; [20]
  Plant response rating, Barnyardgrass: 5
[10]; [17]
  Morningglory plant response rating: 85
[10]; [18]
  Morningglory plant response rating: 40
[10]; [19]
  Plant response rating, Morningglory: 40
[10]; [20]
  Plant response rating, Morningglory: 30
[11]; [17]
  Nutsedge, Yellow plant response rating: 0
[11]; [18]
  Nutsedge, Yellow plant response rating: 5
[11]; [19]
  Plant response rating, Nutsedge, Yellow: 5
[11]; [20]
  Plant response rating, Nutsedge, Yellow: 5
[12]; [17]
  Ryegrass, Italian plant response rating: 0
[12]; [18]
  Ryegrass, Italian plant response rating: 5
[12]; [19]
  Plant response rating, Ryegrass, Italian: 10
[12]; [20]
  Plant response rating, Ryegrass, Italian: 10
[13]; [17]
  Waterhemp plant response rating: 85
[13]; [18]
  Waterhemp plant response rating: 95
[13]; [19]
  Plant response rating, Waterhemp: 98
[13]; [20]
  Plant response rating, Waterhemp: 100
[14]; 16 g ai/ha
  Chickweed plant response rating: 60
[14]; 31 g ai/ha
  Chickweed plant response rating: 85
[14]; 62 g ai/ha
  Plant response rating, Chickweed: 90
[14]; 125 g ai/ha
  Plant response rating, Chickweed: 98
